Test results from article PMC9298916, “The Discovery and Structure‐Activity Evaluation of (+)‐Floyocidin B and Synthetic Analogs” (Chemmedchem, 2021).
Converted amounts (≈) assume the structure as drawn. Like-named read-outs stand apart in the source and are kept apart here.

Tests used:
S. aureus ATCC25923 = experiment: Micro-broth dilution growth inhibition, S. aureus; type: cell-based; conditions: Staphylococcus aureus, 18 h
E. coli ATCC25922 = experiment: Micro-broth dilution growth inhibition, E. coli (CAMH); type: cell-based; conditions: Escherichia coli, 18 h
[1] = Microsomal stability, human; type: in vitro ADME; conditions: 1 µM compound; for microsomal CLint at 1 µM / half-life at 1 µM: human, pooled liver microsomes, pH 7.4, human liver microsomes 0.5 mg/mL; for half-life at 1 µM: read-out: Microsomal stability t1/2, Human
Experimental: (§1) 2.4. Assay descriptions for the profiling of all four stereoisomers of (+)-floyocidin B and (−)-avicennone C,1 the avicennone C-floyocidin B hybrids 35, ent-35, 36 and ent-36 as well as the natural product (+)-floyocidin A. […]
(§2) Pooled liver microsomes are purchased. Microsomes are stored at –80 °C prior to use. Microsomes (final protein concentration 0.5 mg/mL), 0.1 M phosphate buffer pH 7.4, and test compound (final substrate concentration 1 µM; final DMSO concentration 0.25%) are preincubated at 37 °C prior to the addition of NADPH (final concentration 1 mM) to initiate the reaction. A minus cofactor control i ncubation is included for each compound tested where 0.1 M phosphate buffer pH 7.4 is added instead of NADPH. Two control compounds are included. All incubations are performed singularly for each test compound. Each compound is incubate d for 0, 5, 15, 30, and 45 min. The control is incubated for 45 min only. The reactions are stopped by transferring incubate into acetonitrile at the appropriat e time points, in a 1:3 ratio. The termination plates are centrifuged at 3,000 rpm for 20 min at 4 °C to precipitate the protein.
(§3) From a plot of ln peak area ratio (compound peak area/internal standard peak area) against time, the gradient of the line is determined. Subsequently, half -life and intrinsic clearance are calculated using the equations below:
(§4) Elimination rate constant (k) = (- gradient)
(§5) Intrinsic clearance (CL )(µL/min/mg protein) = V x 0.693 […]
(§6) where V = Incubation volume (µL)/Microsomal protein (mg)
(§7) Relevant control compounds are assessed, ensuring intrinsic clearance values fall within the specified limits (if available). […]

THP1 cells = experiment: Cytotoxicity on THP1 cells (CellTiterGlo); type: cell-based; conditions: for Cytotoxicity TC50 THP1: THP1 cells, 40 h
Experimental: (§8) Cytotoxicity on THP1 and HepG2 cells
(§9) After 4 hours of HepG2 cell line (provided by ATCC) plating at 2.500 cells /well in 384-w plates, compounds were added to the cells. After an incubation at 37 °C for 40 h, the CellTiterGlo assay (provided by Promega) was performed.
(§10) Luminescence measurement is related to the cell viability. Compound activity is determined by using the control wells with no treatment as control (100% of growth). The assay was performed identically with THP1 cells. All incubations were […]

[2] = test system: M. catarrhalis ATCC25238I; experiment: Micro-broth dilution growth inhibition, M. catarrhalis; type: cell-based
[3] = Microsomal stability, mouse; type: in vitro ADME; conditions: 1 µM compound; for microsomal CLint at 1 µM / half-life at 1 µM: mouse, pooled liver microsomes, pH 7.4, mouse liver microsomes 0.5 mg/mL; for microsomal CLint at 1 µM: read-out: Microsomal stability CLint, Mouse; for half-life at 1 µM: read-out: Microsomal stability t1/2, Mouse
Experimental: as §1, §2, §3, §4, §5, §6, §7

M. tuberculosis H37Rv = experiment: Growth inhibition, M. tuberculosis H37Rv (Middlebrook 7H9, CellTiter-Blue); type: cell-based; conditions: M. tuberculosis H37Rv (Mtb), 6 days
P. aeruginosa ATCC27853 = experiment: Micro-broth dilution growth inhibition, P. aeruginosa; type: cell-based; conditions: Pseudomonas aeruginosa, 18 h
E. coli ATCC25922 MHC = experiment: Micro-broth dilution growth inhibition, E. coli in CAMH with 44 mM sodium bicarbonate (MHC); type: cell-based; conditions: Escherichia coli, ATCC25922, 18 h, E. coli ATCC25922 MHC (CAMH + 44 mM sodium bicarbonate), read-out: MIC
C. albicans FH2173 = experiment: Micro-broth dilution growth inhibition, C. albicans (ATP quantification); type: cell-based; conditions: Candida albicans, FH2173, 48 h, read-out: MIC
physchem = type: physicochemical; conditions: for chromatographic logD: pH 7.4, Log D pH 7.4
Experimental: 2.4. Assay descriptions for the profiling of all four stereoisomers of (+)-floyocidin B and (−)-avicennone C,1 the avicennone C-floyocidin B hybrids 35, ent-35, 36 and ent-36 as well as the natural product (+)-floyocidin A.
Determination of logD 7.4
LogD values at pH 7.4 were determined by a standardized HPLC method derived from by Genieser et al.8 The calculation of the logD value for measured compounds is performed by comparison of the retention times with standard compounds of known distribution coefficients between 1 -octanol and water at pH 7.4. […]
8 Krass, J. D., Jastorff, B., and Genieser, H.-G. Anal. Chem. 1997, 69, 2575–2581. […]

HepG2 cells = experiment: Cytotoxicity on HepG2 cells (CellTiterGlo); type: cell-based; conditions: 40 h
Experimental: as §8, §9, §10

[4] = Cellular permeability assay utilizing Caco2 cell line; conditions: human
Caco-2 cells = experiment: as above; conditions: 10 µM, 120 min
[5] = Moraxella catarrhalis, ATCC25238I, read-out: MIC
[6] = Mycobacterium tuberculosis, 144 h, read-out: MIC
[7] = A2B in the presence of elacridar
[8] = human liver microsomes 0.5 mg/mL
[9] = mouse liver microsomes 0.5 mg/mL

| SMILES | MIC (S. aureus ATCC25923) | MIC (E. coli ATCC25922) | microsomal CLint at 1 µM [1] | half-life at 1 µM [1] | Cytotoxicity TC50 THP1 (THP1 cells) | MIC [2, 5] | microsomal CLint at 1 µM [3] | half-life at 1 µM [3] | MIC (M. tuberculosis H37Rv; [6]) | MIC (P. aeruginosa ATCC27853) | MIC (E. coli ATCC25922 MHC) | MIC (C. albicans FH2173) | chromatographic logD (physchem) | Cytotoxicity TC50 HepG2 (HepG2 cells) | Caco‐2 permeability recovery +Elacridar (Caco-2 cells; [7]) | Caco‐2 permeability recovery A2B (Caco-2 cells) | Caco‐2 permeability Papp A2B (Caco-2 cells) | other results |
| --- | --- | --- | --- | --- | --- | --- | --- | --- | --- | --- | --- | --- | --- | --- | --- | --- | --- | --- |
| CCC/C=C/c1ccc2c(c1)C(=O)[C@]1(CC=C(C)C)O[C@@H]1[C@H]2O [compound 36] | > 128 µg/mL | > 128 µg/mL | 39.7 µL/min/mg | 34.9 min | 15.1 µM | 8 µg/mL (≈ 25.6 µM) | 259 µL/min/mg | 5.36 min | 9.4 µg/mL (≈ 30.1 µM) | > 128 µg/mL | > 128 µg/mL | > 128 µg/mL | 4.73 | 16.1 µM | – | – | – | Cytotoxicity relative to 4 (THP1 cells; TC50 in THP‐1 and HepG2 compared with 4): three times less cytotoxic than 4 |
| CCC/C=C/c1cc2c(cn1)[C@@H](O)[C@H]1O[C@@]1(CC=C(C)C)C2=O [compound 4, (1aR,2R,7aR)‐2‐Hydroxy‐7 a‐(3‐methylbut‐2‐en‐1‐yl)‐5‐((E)‐pent‐1‐en‐1‐yl)‐1 a,7 a‐dihydrooxireno[2,3‐g]isoquinolin‐7(2H)‐one] | > 128 µg/mL | > 128 µg/mL | 72.7 µL/min/mg | 19.1 min | 5.84 µM | 16 µg/mL (≈ 51.1 µM) | 349 µL/min/mg | 3.97 min | 9.4 µg/mL (≈ 30 µM) | > 128 µg/mL | > 128 µg/mL | > 128 µg/mL | 4.01 | 4.5 µM | 14.2% | 10.1% | – | Papp at 120 min, 10 µM ([4]; Caco-2, Caco‐2 permeability Papp +Elacridar, A2B in the presence of elacridar): 5.62 ×10⁻⁶ cm/s; Papp A→B at 120 min, 10 µM ([4]; Caco-2, Caco‐2 permeability Papp A2B, A2B): 4.11 ×10⁻⁶ cm/s |
| CCCC=Cc1ccc2c(c1)C(=O)C1(CC=C(C)C)OC1C2O (stereo not drawn) [ent‐35] | – | – | – | – | 12.9 µM | – | – | – | – | – | – | – | – | 14.7 µM | [b] (46.1) % | 37.2% | 162 10^−7 cm s^−1 | Microsomal stability CLint, Human [1, 8]: 40.5 μL/min/mg protein; Microsomal stability t1/2, Human [1, 8]: 34.3 min; MIC [2]: 32 µg/mL (≈ 102 µM); Microsomal stability CLint, Mouse [3, 9]: 561 μL/min/mg protein; Microsomal stability t1/2, Mouse [3, 9]: 2.47 min; MIC (M. tuberculosis H37Rv): 9.4 µg/mL (≈ 30.1 µM); Log D pH 7.4 (physchem; pH 7.4): 4.72; Caco‐2 permeability recovery +Elacridar (Caco-2 cells; A2B in the presence of elacridar, listed as ent-35): 46.1%; Caco‐2 permeability recovery A2B (Caco-2 cells; listed as ent-35): 37.2% |
| CCCC=Cc1ccc2c(c1)C(=O)C1(CC=C(C)C)OC1C2O (centres unmarked) [compound 35] | > 128 µg/mL | > 128 µg/mL | 45.5 µL/min/mg | 30.5 min | 12.9 µM | 64 µg/mL (≈ 205 µM) | 1040 µL/min/mg | 1.33 min | 9.4 µg/mL (≈ 30.1 µM) | > 128 µg/mL | > 128 µg/mL | > 128 µg/mL | 4.7 | 9.39 µM | 29.6% | 76.0% | 135 10^−7 cm s^−1 | Caco‐2 permeability Papp +Elacridar (Caco-2 cells; [7]): 181 10^−7 cm s^−1 |
